# The source made the active and inactive calls.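 The calls were made as follows: active = EC50 at most 10 µM,% response shifting 30 points or more across doses, valid curve fit; inactive = the rest.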
# Target: Cell division control protein 42 homolog (Homo sapiens) (UniProt P60953)
# Assay: inhibitors of wildtype Cdc42 GTP binding, SAR follow-up, biochemical, bead multiplex, flow cytometry, round 1 (AID 588385)
# Conditions: GST-Cdc42 wt beads, Bodipy-GTP binding
# Sequence of Cell division control protein 42 homolog (Homo sapiens) (P60953 whole entry, looked up): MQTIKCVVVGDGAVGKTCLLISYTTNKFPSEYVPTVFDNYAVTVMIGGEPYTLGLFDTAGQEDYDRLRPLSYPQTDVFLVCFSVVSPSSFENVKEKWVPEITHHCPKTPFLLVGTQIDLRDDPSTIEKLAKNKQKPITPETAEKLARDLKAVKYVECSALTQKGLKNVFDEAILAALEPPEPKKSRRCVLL
row,SMILES,EC50 [nM]
1,CC1Cc2c(sc(NC(=S)NC(=O)c3ccccc3)c2C(=O)O)CO1 (stereo unspecified),405
2,COc1cccc(C(=O)NC(=S)Nc2sc3c(c2C(=O)O)CC(C)(C)OC3)c1,82
3,CC1(C)Cc2c(sc(NC(=S)NC(=O)c3cccc(F)c3)c2C(=O)O)CO1,319
4,CC1(C)Cc2c(sc(NC(=S)NC(=O)c3ccccc3Br)c2C(=O)O)CO1,91
5,O=C(NC(=S)Nc1sc2c(c1C(=O)O)CCOC2)c1ccccc1,40
6,CC1(C)CCc2sc(NC(=S)NC(=O)c3ccccc3)c(C(=O)O)c2C1,168
7,COc1ccc(C(=O)NC(=S)Nc2sc3c(c2C(=O)O)CC(C)(C)OC3)cc1,501
8,CC1(C)Cc2c(sc(NC(=S)NC(=O)c3ccccc3F)c2C(=O)O)CO1,80
9,CC1(C)Cc2c(sc(NC(=S)NC(=O)c3ccc(Br)cc3)c2C(=O)O)CO1,452

# Same assay, conditions: GST-Cdc42 wt beads, Bodipy-GTP binding, at 100 µM (top of the series)
row,SMILES,% response (lower = inhibition)
1,CC1(C)Cc2c(sc(NC(=S)NC(=O)c3cccc(Br)c3)c2C(=O)O)CO1,inactive
2,CC(C)(C)OC(=O)c1c(NC(=S)NC(=O)c2ccccc2)sc2c1CCOC2,inactive
3,CCOC(=O)c1c(N)sc2ccccc12,inactive
4,Cc1ccc(Nc2nc3sc4c(c3c(=O)o2)CCN(C)C4)cc1,inactive
5,CN1CCc2c(sc(NC(=O)Nc3ccc(F)cc3)c2C(=O)O)C1,inactive
6,CC1(C)Cc2c(sc(NC(=O)Cc3ccccc3)c2C(=O)O)CO1,inactive
7,Cc1ccc(NC(=O)Nc2sc3c(c2C(=O)O)CCN(C)C3)cc1,inactive
8,CCOC(=O)c1c(NC(=S)NC(=O)c2ccccc2)sc2ccccc12,inactive
9,CC1(C)Cc2c(sc(NC(=S)Nc3ccccc3)c2C(=O)O)CO1,inactive
10,CCOC(=O)c1c(NC(=O)NC(C)(C)C)sc2c1CCN(C)C2,inactive
11,COC(=O)c1c(N)sc2c1CC(C)(C)OC2,inactive
12,CN1CCc2c(sc3nc(Nc4ccc(F)cc4)oc(=O)c23)C1,inactive
13,COC(=O)c1c(NC(=S)NC(=O)c2ccccc2)sc2c1CC(C)(C)OC2,inactive
14,CC1(C)Cc2c(sc(NC(=O)NC(=O)c3ccccc3)c2C(=O)O)CO1,inactive
15,CCOC(=O)c1c(NC(=S)Nc2ccccc2)sc2c1CC(C)(C)OC2,inactive
16,CCOC(=O)c1c(NC(=O)Nc2ccc(F)cc2)sc2c1CCN(C)C2,inactive
17,CCOC(=O)c1c(NC(=O)Nc2ccc(C)cc2)sc2c1CCN(C)C2,inactive

# From PubChem BioAssay AID588385 (NMMLSC, 2011)
